In ChEMBL document CHEMBL2176907, “Identification of multiple 5-HT₄ partial agonist clinical candidates for the treatment of Alzheimer's disease” (J Med Chem, 2012):
Activity calls are given as the source filed them. The rule behind the calls is not given here.

What was measured:
Rattus norvegicus [1] = experiment: Gastrointestinal toxicity in Sprague-Dawley rat assessed as decrease in food intake administered as repeated dose for 7 days measured up to 14 days; type: organism-based; details: in vivo
Rattus norvegicus [2] = experiment: Displacement of [3H]SB207145 from 5HT4 receptor in sc dosed Sprague-Dawley rat striatal membrane incubated for 45 mins prior to [3H]SB207145-adminsitration measured after 15 mins; type: functional, organism-based; details: Striatum
[3] = Intrinsic clearance in rat liver microsomes; type: ADME, Microsome; details: read-out: CLH
Rattus norvegicus [4] = experiment: Gastrointestinal toxicity in female Sprague-Dawley rat assessed as mucosal injury at 30 mg/kg administered as repeated dose for 7 days measured up to 14 days; type: organism-based; parameters: dose 30 mg/kg; details: in vivo
[5] = Ratio of free drug concentration in brain to free drug concentration in plasma in sc dosed Sprague-Dawley rat; type: ADME, organism-based; details: read-out: K(p,uu,brain)
[6] = target: T1, 5-hydroxytryptamine receptor 4 (Homo sapiens, UniProt Q13639); experiment: biochemical
Description: Displacement of [3H]GR113808 from human 5HT4B receptor expressed in HEK293 cells after 30 mins by liquid scintillation counting

Canis familiaris [7] = experiment: Gastrointestinal toxicity in beagle dog assessed as decrease in food intake administered as repeated dose for 7 days measured up to 14 days; type: organism-based, Canis lupus familiaris; details: in vivo
[8] = Intrinsic clearance in dog liver microsomes; type: ADME, Canis lupus familiaris, Microsome; details: read-out: CLH
Rattus norvegicus [9] = experiment: Gastrointestinal toxicity in female Sprague-Dawley rat assessed as reduction in body weight at 30 mg/kg administered as repeated dose for 7 days measured up to 14 days; type: organism-based; parameters: dose 30 mg/kg; details: in vivo
[10] = target: T1, 5-hydroxytryptamine receptor 4; experiment: biochemical; remark: listed apart in the source
Description: Displacement of [3H]GR113808 from human 5HT4E receptor expressed in CHO cells after 30 mins by liquid scintillation counting

[11] = target: T2, 5-hydroxytryptamine receptor 4 (Rattus norvegicus, UniProt Q62758)
Description: Agonist activity at rat 5HT4E receptor expressed in HEK293 cells assessed as increase in cAMP production after 30 mins by HTRF assay

Rattus norvegicus [12] = experiment: Gastrointestinal toxicity in male Sprague-Dawley rat assessed as reduction in body weight at 100 mg/kg administered as repeated dose for 7 days measured up to 14 days; type: organism-based; parameters: dose 100 mg/kg; details: in vivo
Plasma = experiment: Free AUC (0 to 4 hrs) in sc dosed Sprague-Dawley rat plasma by LC-MS/MS analysis; type: ADME, organism-based; details: in vivo
Rattus norvegicus [13] = experiment: Receptor occupancy of 5HT4 receptor in Sprague-Dawley rat brain at 5 mg/kg, sc up to 4 hrs; type: functional; details: route subcutaneous
Canis familiaris [14] = experiment: Neurotoxicity in beagle dog assessed as convulsions at 30 mg/kg administered as repeated dose for 7 days measured up to 14 days; type: toxicity, organism-based, Canis lupus familiaris; parameters: dose 30 mg/kg; details: in vivo
Rattus norvegicus [15] = experiment: Procognitive activity in Sprague-Dawley rat assessed as increase in acetylcholine level in prefrontal cortex at 5 mg/kg, sc after 3 hrs by brain microdialysis relative to control; type: functional, organism-based; parameters: dose 5 mg/kg
[16] = Oral bioavailability in dog; type: ADME, organism-based, Canis lupus familiaris; details: in vivo
[17] = Clearance in iv dosed rat; type: ADME, organism-based; details: in vivo
[18] = target: T2, 5-hydroxytryptamine receptor 4; remark: listed apart in the source
Description: Agonist activity at rat 5HT4S receptor expressed in HEK293 cells assessed as increase in cAMP production after 30 mins by HTRF assay

[19] = target: T2, 5-hydroxytryptamine receptor 4; remark: listed apart in the source
Description: Displacement of [3H]GR113808 from 5HT4 receptor in rat striatal membrane after 30 mins by liquid scintillation counting

[20] = Intrinsic clearance in human liver microsomes; type: ADME, Microsome; details: read-out: CLH
[21] = Apparent permeability from apical to basal side of RRCK cells at 2 uM after 2 hrs by transwell assay; type: ADME, cell-based, Canis lupus familiaris, MDCKII-LE; details: dog, MDCK
[22] = target: T1, 5-hydroxytryptamine receptor 4
Description: Agonist activity at human 5HT4A receptor expressed in HEK293 cells assessed as increase in cAMP production after 30 mins by HTRF assay

Canis familiaris [23] = experiment: Gastrointestinal toxicity in beagle dog assessed as emesis at 20 mg/kg administered as repeated dose for 7 days measured up to 14 days; type: organism-based, Canis lupus familiaris; parameters: dose 20 mg/kg; details: in vivo
[24] = target: 5-hydroxytryptamine receptor 4 (Rattus norvegicus) (UniProt Q62758); experiment: Agonist activity at 5HT4 receptor in rat oesophagus assessed as reversal of carbamylcholine-induced contraction at 10 uM incubated at 7 mins post carbamylcholine-challenge measured after 30 mins relative to 5HT; type: functional
[25] = target: T2, 5-hydroxytryptamine receptor 4; remark: listed apart in the source
Description: Agonist activity at rat 5HT4L receptor expressed in HEK293 cells assessed as increase in cAMP production after 30 mins by HTRF assay

[26] = target: T1, 5-hydroxytryptamine receptor 4; remark: listed apart in the source
Description: Agonist activity at human 5HT4B receptor expressed in HEK293 cells assessed as increase in cAMP production after 30 mins by HTRF assay

MDR1 = experiment: in vitro; details: dog, MDCK-MDR1
Description: Efflux ratio of permeability from basal to apical to apical to basal side of MDCK cells expressing MDR1 at 2 uM after 5 hrs by transwell assay

[27] = target: T1, 5-hydroxytryptamine receptor 4; remark: listed apart in the source
Description: Agonist activity at human 5HT4E receptor expressed in HEK293 cells assessed as increase in cAMP production after 30 mins by HTRF assay

Canis familiaris [28] = experiment: Cardiotoxicity in beagle dog assessed as increase in systolic blood pressure at 0.1 mg/kg administered as repeated dose for 7 days measured up to 1 month; type: toxicity, organism-based, Canis lupus familiaris, Artery; parameters: dose 0.1 mg/kg; details: in vivo, 168 h
Brain = experiment: Free AUC (0 to 4 hrs) in sc dosed Sprague-Dawley rat brain by LC-MS/MS analysis; type: ADME, organism-based; details: in vivo
[29] = target: T1, 5-hydroxytryptamine receptor 4; experiment: biochemical; remark: listed apart in the source
Description: Displacement of [3H]GR113808 from human 5HT4D receptor expressed in HEK293 cells after 30 mins by liquid scintillation counting

Rattus norvegicus [30] = experiment: Gastrointestinal toxicity in male Sprague-Dawley rat assessed as mucosal injury at 100 mg/kg administered as repeated dose for 7 days measured up to 14 days; type: organism-based; parameters: dose 100 mg/kg; details: in vivo
[31] = Oral bioavailability in rat; type: ADME, organism-based; details: in vivo
[32] = Clearance in iv dosed dog; type: ADME, organism-based, Canis lupus familiaris; details: in vivo
[33] = target: T1, 5-hydroxytryptamine receptor 4; experiment: biochemical; remark: listed apart in the source
Description: Displacement of [3H]GR113808 from human 5HT4A receptor expressed in HEK293 cells after 30 mins by liquid scintillation counting

[34] = target: T1, 5-hydroxytryptamine receptor 4; experiment: Agonist activity at human 5HT4D receptor expressed in HEK293 cells assessed as cAMP production after 30 mins by HTRF assay; type: functional, cell-based
[35] = target: T1, 5-hydroxytryptamine receptor 4; experiment: Agonist activity at human 5HT4D receptor expressed in HEK293 cells assessed as cAMP production after 30 mins by HTRF assay relative to 5HT; type: functional, cell-based
CYP2D6 = CYP2D6 (Homo sapiens, UniProt P10635); experiment: Inhibition of CYP2D6 in human liver microsomes using dextromethorphan as substrate at 3 uM; type: ADME, Microsome; details: probe dextromethorphan
Rattus norvegicus [36] = experiment: Gastrointestinal toxicity in Sprague-Dawley rat assessed as decrease in food intake administered as repeated dose for 7 days measured up to 1 month; type: organism-based; details: in vivo, 168 h
Rattus norvegicus [37] = experiment: Neurotoxicity in Sprague-Dawley rat assessed as convulsions at 100 mg/kg administered as repeated dose for 7 days measured up to 1 month; type: toxicity, organism-based; parameters: dose 100 mg/kg; details: in vivo, 168 h
Canis familiaris [38] = experiment: Neurotoxicity in beagle dog assessed as convulsions at 30 mg/kg administered as repeated dose for 7 days measured up to 1 month; type: toxicity, organism-based, Canis lupus familiaris; parameters: dose 30 mg/kg; details: in vivo, 168 h
Canis familiaris [39] = experiment: Cardiotoxicity in beagle dog assessed as increase in systolic blood pressure at 10 mg/kg administered as repeated dose for 7 days measured up to 1 month; type: toxicity, organism-based, Canis lupus familiaris, Artery; parameters: dose 10 mg/kg; details: in vivo, 168 h
Canis familiaris [40] = experiment: Gastrointestinal toxicity in beagle dog assessed as emesis at 30 mg/kg administered as repeated dose for 7 days measured up to 1 month; type: organism-based, Canis lupus familiaris; parameters: dose 30 mg/kg; details: in vivo, 168 h
Rattus norvegicus [41] = experiment: Gastrointestinal toxicity in male Sprague-Dawley rat assessed as reduction in body weight at 100 mg/kg administered as repeated dose for 7 days measured up to 1 month; type: organism-based; parameters: dose 100 mg/kg; details: in vivo, 168 h
Canis familiaris [42] = experiment: Gastrointestinal toxicity in beagle dog assessed as decrease in food intake administered as repeated dose for 7 days measured up to 1 month; type: organism-based, Canis lupus familiaris; details: in vivo, 168 h
Rattus norvegicus [43] = experiment: Procognitive activity in Wistar rat assessed as reversal of scopolamine-induced learning deficit at […], sc administered 30 mins prior to scopolamine-challenge measured on acquisition days 3 and 4 by Morris water maze testing; type: functional, organism-based; parameters: dose 0.032 mg/kg
Rattus norvegicus [44] = experiment: Procognitive activity in Sprague-Dawley rat assessed as increase in acetylcholine level in prefrontal cortex at 1 mg/kg, sc after 3 hrs by brain microdialysis relative to control; type: functional, organism-based; parameters: dose 1 mg/kg
[45] = AUC (0 to 4 hrs) in sc dosed Sprague-Dawley rat CSF by LC-MS/MS analysis; type: ADME, organism-based; parameters: time < 4 hr, route subcutaneous
Rattus norvegicus [46] = experiment: Receptor occupancy of 5HT4 receptor in Sprague-Dawley rat brain at 1 mg/kg, sc up to 4 hrs; type: functional; details: route subcutaneous
Rattus norvegicus [47] = experiment: Receptor occupancy of 5HT4 receptor in Wistar rat at […], sc; details: route subcutaneous

T1 sequence (Q13639 whole entry): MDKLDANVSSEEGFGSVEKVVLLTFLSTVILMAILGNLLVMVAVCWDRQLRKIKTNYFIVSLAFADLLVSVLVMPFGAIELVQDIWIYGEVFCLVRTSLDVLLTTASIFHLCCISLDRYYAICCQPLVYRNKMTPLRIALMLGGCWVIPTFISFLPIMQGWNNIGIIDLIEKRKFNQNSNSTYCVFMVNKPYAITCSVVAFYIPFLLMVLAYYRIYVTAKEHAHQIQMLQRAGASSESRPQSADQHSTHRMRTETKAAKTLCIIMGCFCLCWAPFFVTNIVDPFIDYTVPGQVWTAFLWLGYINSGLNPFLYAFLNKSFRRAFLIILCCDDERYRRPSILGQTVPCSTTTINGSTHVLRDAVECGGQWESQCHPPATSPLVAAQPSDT
T2 sequence (Q62758 whole entry): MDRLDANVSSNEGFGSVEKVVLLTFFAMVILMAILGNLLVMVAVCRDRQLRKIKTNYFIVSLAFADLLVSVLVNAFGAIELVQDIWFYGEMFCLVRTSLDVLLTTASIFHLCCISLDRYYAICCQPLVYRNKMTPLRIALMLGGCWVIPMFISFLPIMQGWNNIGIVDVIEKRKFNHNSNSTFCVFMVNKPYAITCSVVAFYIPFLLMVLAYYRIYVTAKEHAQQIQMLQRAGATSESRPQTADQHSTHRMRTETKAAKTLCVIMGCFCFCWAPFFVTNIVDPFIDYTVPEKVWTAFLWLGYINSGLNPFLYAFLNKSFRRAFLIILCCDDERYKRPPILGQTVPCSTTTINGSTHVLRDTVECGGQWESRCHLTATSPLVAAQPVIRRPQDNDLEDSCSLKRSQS
Chain of CYP2D6 (P10635 whole entry): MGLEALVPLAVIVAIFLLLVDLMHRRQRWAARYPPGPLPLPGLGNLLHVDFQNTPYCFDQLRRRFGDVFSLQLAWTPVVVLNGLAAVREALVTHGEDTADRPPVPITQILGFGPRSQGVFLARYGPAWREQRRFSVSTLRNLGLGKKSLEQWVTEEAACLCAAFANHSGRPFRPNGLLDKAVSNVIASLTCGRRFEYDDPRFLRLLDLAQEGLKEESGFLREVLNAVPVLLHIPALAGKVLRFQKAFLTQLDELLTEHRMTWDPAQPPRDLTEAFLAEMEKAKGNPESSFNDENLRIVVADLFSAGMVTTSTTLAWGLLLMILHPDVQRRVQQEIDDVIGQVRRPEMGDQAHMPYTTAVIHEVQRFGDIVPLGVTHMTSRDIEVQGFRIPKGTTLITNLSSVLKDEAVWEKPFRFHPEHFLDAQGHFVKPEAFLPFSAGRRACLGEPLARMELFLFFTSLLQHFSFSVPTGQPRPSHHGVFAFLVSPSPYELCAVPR
Chain of 5-hydroxytryptamine receptor 4 (Rattus norvegicus) (Q62758 whole entry): as the sequence (Q62758 whole entry) above

In the case of CC(C)n1c(=O)n(C(=O)NCC2CCN(CC3(O)CCOCC3)CC2)c2cc(F)ccc21, the Activity (Rattus norvegicus [1]) is reported as “Toxic”, the Activity (Rattus norvegicus [2]) is reported as “Dose-dependent effect” and the CLint scaled [3] is reported as 45.2 mL/min/kg. For the same molecule, the Activity (Rattus norvegicus [4]) was “Toxic”, the Kp uu [5] was 1.6 and the Ki [6] was 5.5 nM. For the same molecule, the Activity (Canis familiaris [7]) was “Toxic”, the CLint scaled [8] was less than 5.6 mL/min/kg and the Activity (Rattus norvegicus [9]) was “Toxic”. For the same molecule, the Ki [10] was 4.9 nM, the EC50 [11] was 1.59 nM and the Activity (Rattus norvegicus [12]) was “Toxic”. For the same molecule, the fAUC (Plasma) was 0.0276 µM·h, the Occ (Rattus norvegicus [13]) was greater than 90% and the Activity (Canis familiaris [14]) was “Toxic”. The Activity (Rattus norvegicus [15]) was “Active”, the bioavailability [16] was 100% and the clearance [17] was 12.6 mL/min/kg. The EC50 [18] was 0.9 nM, the Ki [19] was 1.5 nM and the CLint scaled [20] was 24.3 mL/min/kg. The Papp A→B at 2 h, 2 µM [21] was 21.9 ×10⁻⁶ cm/s, the EC50 [22] was 0.38 nM and the Activity (Canis familiaris [23]) was “Toxic”. The Activity [24] was 70%, the EC50 [25] was 0.96 nM and the EC50 [26] was 1.2 nM. The efflux ratio at 5 h, 2 µM (MDR1) was 1.41, the EC50 [27] was 0.98 nM and the Activity (Canis familiaris [28]) was “Toxic”. For the same molecule, the fAUC (Brain) was 0.0443 µM·h, the Ki [29] was 1.7 nM and the Activity (Rattus norvegicus [30]) was “Toxic”. The bioavailability [31] was 40%, the clearance [32] was 40 mL/min/kg and the Ki [33] was 4.4 nM. The EC50 [34] was 0.9 nM and the Emax [35] was 86%.

With O[C@@H]1CC[C@@H](Oc2cccc3onc(OCC4CCN(CC5(O)CCOCC5)CC4)c23)C1 the CLint scaled [20] was 56 mL/min/kg, the Papp A→B at 2 h, 2 µM [21] was 15 ×10⁻⁶ cm/s and the efflux ratio at 5 h, 2 µM (MDR1) was 2.2. It also gave an inhibition at 3 µM (CYP2D6) of 37%, a Ki [29] of 0.5 nM and an EC50 [34] of 0.4 nM. The Emax [35] was 28%.

In the case of OC1(CN2CCC(COc3noc4cccc(O[C@@H]5CCOC5)c34)CC2)CCOCC1 [PF-04995274], the Activity (Rattus norvegicus [2]) is reported as “Dose-dependent effect”, the Activity (Rattus norvegicus [36]) is reported as “Toxic” and the Activity (Rattus norvegicus [37]) is reported as “Toxic”. For the same molecule, the CLint scaled [3] was 48.9 mL/min/kg, the Kp uu [5] was 0.7 and the CLint scaled [8] was 27.9 mL/min/kg. For the same molecule, the Activity (Canis familiaris [38]) was “Toxic”, the Activity (Canis familiaris [39]) was “Toxic” and the fAUC (Plasma) was 1.054 µM·h. For the same molecule, the Activity (Canis familiaris [40]) was “Toxic”, the bioavailability [16] was 47% and the clearance [17] was 81.8 mL/min/kg. The CLint scaled [20] was 33 mL/min/kg, the Papp A→B at 2 h, 2 µM [21] was 30 ×10⁻⁶ cm/s and the Activity (Rattus norvegicus [41]) was “Toxic”. For the same molecule, the Activity (Canis familiaris [42]) was “Toxic”, the Activity (Rattus norvegicus [43]) was “Active” and the Activity (Rattus norvegicus [44]) was “Active”. For the same molecule, the AUC(0-t) at 4 h [45] was 0.519 µM·h, the inhibition at 3 µM (CYP2D6) was 13% and the fAUC (Brain) was 0.706 µM·h. For the same molecule, the Occ (Rattus norvegicus [46]) was greater than 90%, the Occ (Rattus norvegicus [47]) was greater than 90% and the bioavailability [31] was 40%. The clearance [32] was 21.2 mL/min/kg.
